Consider 27 compounds from US9422293B2 (priority 2006, dated 2016).

Where a name gives a salt, the structure may show the parent alone.

In this assay the target is rat TRPV1 (Rattus norvegicus (Rat), UniProt O35433). Particulars: read-out: Rat IC50.
Sequence of rat TRPV1 (O35433 whole entry): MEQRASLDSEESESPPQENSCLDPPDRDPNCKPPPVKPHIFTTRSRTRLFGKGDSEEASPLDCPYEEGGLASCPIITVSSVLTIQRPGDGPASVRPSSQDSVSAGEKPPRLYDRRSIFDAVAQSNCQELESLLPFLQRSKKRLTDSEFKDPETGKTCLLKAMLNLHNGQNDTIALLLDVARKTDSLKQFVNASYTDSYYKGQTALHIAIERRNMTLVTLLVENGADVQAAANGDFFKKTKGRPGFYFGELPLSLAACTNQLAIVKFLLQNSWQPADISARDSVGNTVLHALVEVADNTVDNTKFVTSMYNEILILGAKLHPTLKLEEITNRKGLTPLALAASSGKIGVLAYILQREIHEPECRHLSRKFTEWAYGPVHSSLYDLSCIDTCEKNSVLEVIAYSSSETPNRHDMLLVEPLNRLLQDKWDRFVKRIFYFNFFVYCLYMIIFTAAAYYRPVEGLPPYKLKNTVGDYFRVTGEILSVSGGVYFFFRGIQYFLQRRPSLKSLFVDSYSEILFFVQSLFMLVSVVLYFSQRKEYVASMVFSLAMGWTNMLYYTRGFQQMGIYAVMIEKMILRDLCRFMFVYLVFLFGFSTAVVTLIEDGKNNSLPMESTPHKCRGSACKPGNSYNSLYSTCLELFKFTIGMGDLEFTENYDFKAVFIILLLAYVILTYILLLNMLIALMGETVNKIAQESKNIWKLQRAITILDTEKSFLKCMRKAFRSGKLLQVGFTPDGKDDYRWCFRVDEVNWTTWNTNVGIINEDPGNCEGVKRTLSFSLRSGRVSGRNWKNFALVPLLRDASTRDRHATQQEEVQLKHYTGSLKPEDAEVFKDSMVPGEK

As for `O=S(=O)(c1ccc(Nc2nc(SCc3ccccc3)nc3c2CCN(c2ncccc2C(F)(F)F)CC3)cc1)C(F)(F)F` [Example 359, 2-[(Phenylmethyl)sulfanyl]-7-[3-(trifluoromethyl)pyridin-2-yl]-N-{4-[(trifluoromethyl)sulfonyl]phenyl}-6,7,8,9-tetrahydro-5H-pyrimido[4,5-d]azepin-4-amine], the IC50 (usually the midpoint of a concentration-inhibition curve) is 320 nM.

Regarding `CSc1nc2c(c(Nc3ccc4c(c3)N(C)CCC4)n1)CCN(c1ncccc1C(F)(F)F)CC2` [Example 205, 2-(Methylsulfanyl)-N-(1-methyl-1,2,3,4-tetrahydroquinolin-7-yl)-7-[3-(trifluoromethyl)pyridin-2-yl]-6,7,8,9-tetrahydro-5H-pyrimido[4,5-d]azepin-4-amine], the IC50 was found to be 2280 nM.

In the case of `Cc1cc(C(F)(F)F)ccc1Nc1nc(OC2CCCCC2)nc2c1CCN(c1ncccc1C(F)(F)F)CC2` [Example 326, 2-(Cyclohexyloxy)-N-[2-methyl-4-(trifluoromethyl)phenyl]-7-[3-(trifluoromethyl)pyridin-2-yl]-6,7,8,9-tetrahydro-5H-pyrimido[4,5-d]azepin-4-amine], the IC50 is 600 nM.

Take `CC(C)c1nc2c(c(Nc3ccc(N4CCCC4)nc3)n1)CCN(c1ncccc1C(F)(F)F)CC2` [Example 165, [2-Isopropyl-7-(3-trifluoromethyl-pyridin-2-yl)-6,7,8,9-tetrahydro-5H-pyrimido[4,5-d]azepin-4-yl]-(6-pyrrolidin-1-yl-pyridin-3-yl)-amine]: the IC50 was found to be 2250 nM.

With `FC(F)(F)c1ccc(Nc2nc(N3CCCCC3)nc3c2CCN(c2ncccc2C(F)(F)F)CC3)cc1` [Example 39, [2-Piperidin-1-yl-7-(3-trifluoromethyl-pyridin-2-yl)-6,7,8,9-tetrahydro-5H-pyrimido[4,5-d]azepin-4-yl]-(4-trifluoromethyl-phenyl)-amine], the IC50 amounted to 18 nM.

In the case of `CC(C)Oc1nc2c(c(Nc3ccc(C(F)(F)F)cc3)n1)CCN(c1ncccc1C(F)(F)F)CC2` [Example 341, 2-[(1-Methylethyl)oxy]l-N-[4-(trifluoromethyl)phenyl]-7-[3-(trifluoromethyl)pyridin-2-yl]-6,7,8,9-tetrahydro-5H-pyrimido[4,5-d]azepin-4-amine trifluoroacetic acid salt], the IC50 was 150 nM.

Regarding `CC(C)(O)c1ccc(Nc2nc(N3CCCCC3)nc3c2CCN(c2ncccc2C(F)(F)F)CC3)cc1` [Example 177, 2-[4-({2-Piperidin-1-yl-7-[3-(trifluoromethyl)pyridin-2-yl]-6,7,8,9-tetrahydro-5H-pyrimido[4,5-d]azepin-4-yl}amino)phenyl]propan-2-ol], the IC50 stood at 90 nM.

With `CC(C)c1nc2c(c(NCCc3ccc(Cl)cc3)n1)CCN(c1ncccc1C(F)(F)F)CC2` [Example 124, N-[2-(4-Chlorophenyl)ethyl]-2-(1-methylethyl)-7-[3-(trifluoromethyl)pyridin-2-yl]-6,7,8,9-tetrahydro-5H-pyrimido[4,5-d]azepin-4-amine], the IC50 is 570 nM.

`CN1CCCc2ccc(Nc3nc(OC4CCOC4)nc4c3CCN(c3ncccc3C(F)(F)F)CC4)cc21` (stereo not drawn) [Example 323, N-(1-Methyl-1,2,3,4-tetrahydroquinolin-7-yl)-2-(tetrahydrofuran-3-yloxy)-7-[3-(trifluoromethyl)pyridin-2-yl]-6,7,8,9-tetrahydro-5H-pyrimido[4,5-d]azepin-4-amine]: the IC50 worked out at 670 nM.

Take `COC[C@@H]1CCCN1c1nc2c(c(Nc3ccc(C(F)(F)F)cc3)n1)CCN(c1ncccc1C(F)(F)F)CC2` [Example 215, 2-{(2S)-2-[(Methyloxy)methyl]pyrrolidin-1-yl}-N-[4-(trifluoromethyl)phenyl]-7-[3-(trifluoromethyl)pyridin-2-yl]-6,7,8,9-tetrahydro-5H-pyrimido[4,5-d]azepin-4-amine trifluoroacetic acid salt]: the IC50 is 10 nM.

As to `CC(C)(C)c1ccc(Nc2nc(-c3ccco3)nc3c2CCN(c2ncccc2C(F)(F)F)CC3)cc1` [Example 145, N-[4-(1,1-Dimethylethyl)phenyl]-2-furan-2-yl-7-[3-(trifluoromethyl)pyridin-2-yl]-6,7,8,9-tetrahydro-5H-pyrimido[4,5-d]azepin-4-amine], the IC50 came out at 240 nM.

Regarding `CCS(=O)(=O)c1cccnc1N1CCc2nc(SC)nc(Nc3ccc(C(F)(F)F)cc3)c2CC1` [Example 305, [7-(3-Ethanesulfonyl-pyridin-2-yl)-2-methylsulfanyl-6,7,8,9-tetrahydro-5H-pyrimido[4,5-d]azepin-4-yl]-(4-trifluoromethyl-phenyl)-amine], the IC50 is 1120 nM.

Turning to `COC(=O)c1cnc(N2CCc3nc(SC)nc(Nc4ccc(C(F)(F)F)cc4)c3CC2)c(Cl)c1` [Example 303, Methyl 5-chloro-6-[2-(methylsulfanyl)-4-{[4-(trifluoromethyl)phenyl]amino}-5,6,8,9-tetrahydro-7H-pyrimido[4,5-d]azepin-7-yl]pyridine-3-carboxylate], the IC50 is more than 6670 nM.

On to `CC(C)c1nc2c(c(Nc3ccc(C(C)(O)C(F)(F)F)cc3)n1)CCN(c1ncccc1C(F)(F)F)CC2` (stereo not drawn) [Example 179, 1,1,1-Trifluoro-2-[4-({2-(1-methylethyl)-7-[3-(trifluoromethyl)pyridin-2-yl]-6,7,8,9-tetrahydro-5H-pyrimido[4,5-d]azepin-4-yl}amino)phenyl]propan-2-ol], for which the IC50 amounted to 1340 nM.

For the compound `CC(C)c1nc2c(c(Nc3ccc(C(C)O)cc3)n1)CCN(c1ncccc1C(F)(F)F)CC2` (stereo not drawn) [Example 182, 1-[4-({2-(1-Methylethyl)-7-[3-(trifluoromethyl)pyridin-2-yl]-6,7,8,9-tetrahydro-5H-pyrimido[4,5-d]azepin-4-yl}amino)phenyl]ethanol], the IC50 came out at 790 nM.

For `CC(C)c1nc2c(c(NCc3ccc(C(F)(F)F)cc3)n1)CCN(c1ncccc1C(F)(F)F)CC2` [Example 117, 2-(1-Methylethyl)-N-{[4-(trifluoromethyl)phenyl]methyl}-7-[3-(trifluoromethyl)pyridin-2-yl]-6,7,8,9-tetrahydro-5H-pyrimido[4,5-d]azepin-4-amine], the IC50 was 13500 nM.

With `CC(C)c1nc2c(c(Nc3ccc(C(F)(F)F)c(Cl)c3)n1)CCN(c1ncccc1C(F)(F)F)CC2` [Example 128, N-[3-Chloro-4-(trifluoromethyl)phenyl]-2-(1-methylethyl)-7-[3-(trifluoromethyl)pyridin-2-yl]-6,7,8,9-tetrahydro-5H-pyrimido[4,5-d]azepin-4-amine], the IC50 was 150 nM.

Turning to `CC(Oc1nc2c(c(Nc3ccc(C(F)(F)F)cc3)n1)CCN(c1ncccc1C(F)(F)F)CC2)C1CCCCC1` (stereo not drawn) [Example 332, 2-[(1-Cyclohexylethyl)oxy]l-N-[4-(trifluoromethyl)phenyl]-7-[3-(trifluoromethyl)pyridin-2-yl]-6,7,8,9-tetrahydro-5H-pyrimido[4,5-d]azepin-4-amine], the IC50 was 2040 nM.

For the compound `COC(=O)c1ccc(Nc2nc(N3CCCCC3)nc3c2CCN(c2ncccc2C(F)(F)F)CC3)cc1` [Example 387, 4-[2-Piperidin-1-yl-7-(3-trifluoromethyl-pyridin-2-yl)-6,7,8,9-tetrahydro-5H-pyrimido[4,5-d]azepin-4-ylamino]-benzoic acid methyl ester], the IC50 was 550 nM.

As for `FC(F)(F)c1ccc(Nc2nc(N3CCC3)nc3c2CCN(c2ncccc2C(F)(F)F)CC3)cc1` [Example 56B, [2-Azetidin-1-yl-7-(3-trifluoromethyl-pyridin-2-yl)-6,7,8,9-tetrahydro-5H-pyrimido[4,5-d]azepin-4-yl]-(4-trifluoromethyl-phenyl)-amine trifluoroacetic acid salt], the IC50 came to 64 nM.

As to `FC(F)(F)c1ccc(Nc2nc(C3CC3)nc3c2CCN(c2ncccc2C(F)(F)F)CC3)nc1` [Example 19, [2-Cyclopropyl-7-(3-trifluoromethyl-pyridin-2-yl)-6,7,8,9-tetrahydro-5H-pyrimido[4,5-d]azepin-4-yl]-(5-trifluoromethyl-pyridin-2-yl)-amine], the IC50 amounted to 510 nM.

For the compound `CC(C)c1nc2c(c(Nc3ccc(C(C)(C)C)c([N+](=O)[O-])c3)n1)CCN(c1ncccc1C(F)(F)F)CC2` [Example 143, N-[4-(1,1-Dimethylethyl)-3-nitrophenyl]-2-(1-methylethyl)-7-[3-(trifluoromethyl)pyridin-2-yl]-6,7,8,9-tetrahydro-5H-pyrimido[4,5-d]azepin-4-amine], the IC50 stood at 130 nM.

On to `CC(C)c1nc2c(c(NCCc3ccc(F)cc3)n1)CCN(c1ncccc1C(F)(F)F)CC2` [Example 12, [2-(4-Fluoro-phenyl)-ethyl]-[2-isopropyl-7-(3-trifluoromethyl-pyridin-2-yl)-6,7,8,9-tetrahydro-5H-pyrimido[4,5-d]azepin-4-yl]-amine], for which the IC50 worked out at 950 nM.

For the compound `CN(C)c1ccc(Nc2nc(N(C)C)nc3c2CCN(c2ncccc2C(F)(F)F)CC3)cc1` [Example 79B, N^4-(4-Dimethylamino-phenyl)-N^2,N^2-dimethyl-7-(3-trifluoromethyl-pyridin-2-yl)-6,7,8,9-tetrahydro-5H-pyrimido[4,5-d]azepine-2,4-diamine trifluoroacetic acid salt], the half-inhibitory concentration (IC50) is 1300 nM.

With `COC(=O)C(C)(C)c1ccc(Nc2nc(C(C)C)nc3c2CCN(c2ncccc2C(F)(F)F)CC3)cc1` [Example 174, Methyl 2-methyl-2-[4-({2-(1-methylethyl)-7-[3-(trifluoromethyl)pyridin-2-yl]-6,7,8,9-tetrahydro-5H-pyrimido[4,5-d]azepin-4-yl}amino)phenyl]propanoate], the IC50 worked out at 2010 nM.

`CC(C)(C)c1ccc(Nc2nc(N3CCCCC3)nc3c2CCN(c2ncccc2C(F)(F)F)CC3)cc1N` [Example 200, 4-(1,1-Dimethylethyl)-N1-{2-piperidin-1-yl-7-[3-(trifluoromethyl)pyridin-2-yl]-6,7,8,9-tetrahydro-5H-pyrimido[4,5-d]azepin-4-yl}benzene-1,3-diamine]: the IC50 stood at 110 nM.

Take `CC(C)N(C)c1nc2c(c(Nc3ccc(C(F)(F)F)nc3)n1)CCN(c1ncccc1C(F)(F)F)CC2` [Example 266, N^2-Methyl-N^2-(1-methylethyl)-7-[3-(trifluoromethyl)pyridin-2-yl]-N^4-[6-(trifluoromethyl)pyridin-3-yl]-6,7,8,9-tetrahydro-5H-pyrimido[4,5-d]azepine-2,4-diamine]: the IC50 amounted to 450 nM.
